According to ChEMBL document CHEMBL1157133, “Design, synthesis, and interaction study of quinazoline-2(1H)-thione derivatives as novel potential Bcl-xL inhibitors” (J Med Chem, 2010):

system: K562; assay: cells; settings: Homo sapiens, K562, 48 h
Description: Cytotoxicity against human K562 cells after 48 hrs by MTT assay

EC50 [µM]	Structure (SMILES)
> 100	COc1ccccc1C1C=C(c2ccccc2)N=c2s/c(=C\c3cccc(OCC(=O)O)c3)c(=O)n21 (configuration not stated)
> 100	O=C(O)c1cccc(-c2ccc(/C=c3\sc4n(c3=O)C(c3cccc(F)c3)C3=C(N=4)/C(=C/c4cccc(F)c4)CCC3)o2)c1 (configuration not stated)
7.99	COc1ccccc1C1C2=C(N=c3s/c(=C\c4ccccc4OCC(=O)O)c(=O)n31)c1ccccc1CC2 (configuration not stated)
22.9	O=C(O)c1cccc(-c2ccc(/C=c3\sc4n(c3=O)C(c3cccc5ccccc35)C3=C(N=4)c4ccccc4CC3)o2)c1 (configuration not stated)
7.04	O=C(O)COc1cccc(/C=c2\sc3n(c2=O)C(c2ccccc2)C2=C(N=3)c3ccccc3CC2)c1 (configuration not stated)
> 100	O=C(O)c1cccc(-c2ccc(/C=c3\sc4n(c3=O)C(c3ccccc3)C3=C(N=4)c4ccccc4CC3)o2)c1 (configuration not stated)
16.1	COc1ccccc1C1C2=C(N=c3s/c(=C\c4ccc(C(=O)O)cc4)c(=O)n31)c1ccccc1CC2 (configuration not stated)
20.8	COc1ccccc1C1C2=C(N=c3s/c(=C\c4ccc(-c5cccc(C(=O)O)c5)o4)c(=O)n31)c1ccccc1CC2 (configuration not stated)

system: PC-3; assay: Cytotoxicity against human PC3 cells after 48 hrs by MTT assay; assay type: functional, cell-based; settings: not given

Structure (SMILES)	Activity
COc1ccccc1C1C2=C(N=c3s/c(=C\c4ccccc4OCC(=O)O)c(=O)n31)c1ccccc1CC2 (configuration not stated)	Dose-dependent effect
O=C(O)c1cccc(-c2ccc(/C=c3\sc4n(c3=O)C(c3cccc5ccccc35)C3=C(N=4)c4ccccc4CC3)o2)c1 (configuration not stated)	Dose-dependent effect
COc1ccc2c(c1)CCC1=C2N=c2s/c(=C\c3ccc(-c4cccc(C(=O)O)c4)o3)c(=O)n2C1c1cccc(F)c1 (configuration not stated)	Dose-dependent effect

same assay, conditions: PC-3, 48 h

Structure (SMILES)	EC50 [µM]
COc1ccc2c(c1)CCC1=C2N=c2s/c(=C\c3cccc(OCC(=O)O)c3)c(=O)n2C1c1ccccc1OC (configuration not stated)	> 100
COc1ccccc1C1C=C(c2ccccc2)N=c2s/c(=C\c3cccc(OCC(=O)O)c3)c(=O)n21 (configuration not stated)	65.2
O=C(O)c1cccc(-c2ccc(/C=c3\sc4n(c3=O)C(c3cccc(F)c3)C3=C(N=4)/C(=C/c4cccc(F)c4)CCC3)o2)c1 (configuration not stated)	51.4
O=C(O)c1cccc(-c2ccc(/C=c3\sc4n(c3=O)C(c3cccc5ccccc35)C3=C(N=4)c4ccccc4CC3)o2)c1 (configuration not stated)	24.2
COc1ccccc1C1C2=C(N=c3s/c(=C\c4cccc(OCC(=O)O)c4)c(=O)n31)c1cccc(OCc3ccccc3)c1CC2 (configuration not stated)	> 100
COc1ccccc1C1C2=C(N=c3s/c(=C\c4cccc(OCC(=O)O)c4)c(=O)n31)c1cccc(OC(=O)c3ccccc3-c3ccccc3)c1CC2 (configuration not stated)	16.6
O=C(O)COc1cccc(/C=c2\sc3n(c2=O)C(c2ccccc2)C2=C(N=3)c3ccccc3CC2)c1 (configuration not stated)	> 100
O=C(O)c1cccc(-c2ccc(/C=c3\sc4n(c3=O)C(c3ccccc3)C3=C(N=4)c4ccccc4CC3)o2)c1 (configuration not stated)	> 100
COc1ccccc1C1C2=C(N=c3s/c(=C\c4ccc(C(=O)O)cc4)c(=O)n31)c1ccccc1CC2 (configuration not stated)	63.5
COc1ccc2c(c1)CCC1=C2N=c2s/c(=C\c3ccc(-c4cccc(C(=O)O)c4)o3)c(=O)n2C1c1cccc(F)c1 (configuration not stated)	35.2
COc1ccccc1C1C2=C(N=c3s/c(=C\c4ccc(-c5cccc(C(=O)O)c5)o4)c(=O)n31)c1ccccc1CC2 (configuration not stated)	23.2

system: HepG2; assay: cells; settings: Homo sapiens, HepG2, 48 h
Description: Cytotoxicity against human HepG2 cells after 48 hrs by MTT assay

EC50 [µM]	Structure (SMILES)
175	COc1ccccc1C1C=C(c2ccccc2)N=c2s/c(=C\c3cccc(OCC(=O)O)c3)c(=O)n21 (configuration not stated)
8	O=C(O)c1cccc(-c2ccc(/C=c3\sc4n(c3=O)C(c3cccc(F)c3)C3=C(N=4)/C(=C/c4cccc(F)c4)CCC3)o2)c1 (configuration not stated)
41.9	COc1ccccc1C1C2=C(N=c3s/c(=C\c4ccccc4OCC(=O)O)c(=O)n31)c1ccccc1CC2 (configuration not stated)
> 500	O=C(O)c1cccc(-c2ccc(/C=c3\sc4n(c3=O)C(c3cccc5ccccc35)C3=C(N=4)c4ccccc4CC3)o2)c1 (configuration not stated)
14.5	O=C(O)COc1cccc(/C=c2\sc3n(c2=O)C(c2ccccc2)C2=C(N=3)c3ccccc3CC2)c1 (configuration not stated)
13.6	O=C(O)c1cccc(-c2ccc(/C=c3\sc4n(c3=O)C(c3ccccc3)C3=C(N=4)c4ccccc4CC3)o2)c1 (configuration not stated)
45	COc1ccccc1C1C2=C(N=c3s/c(=C\c4ccc(C(=O)O)cc4)c(=O)n31)c1ccccc1CC2 (configuration not stated)
35.6	COc1ccccc1C1C2=C(N=c3s/c(=C\c4ccc(-c5cccc(C(=O)O)c5)o4)c(=O)n31)c1ccccc1CC2 (configuration not stated)

system: not listed separately; assay: Cytotoxicity against human Bel7404 cells after 48 hrs by MTT assay; settings: BEL-7404, 48 h

Structure (SMILES)	EC50 [µM]
COc1ccccc1C1C=C(c2ccccc2)N=c2s/c(=C\c3cccc(OCC(=O)O)c3)c(=O)n21 (configuration not stated)	> 500
O=C(O)c1cccc(-c2ccc(/C=c3\sc4n(c3=O)C(c3cccc(F)c3)C3=C(N=4)/C(=C/c4cccc(F)c4)CCC3)o2)c1 (configuration not stated)	3.8
COc1ccccc1C1C2=C(N=c3s/c(=C\c4ccccc4OCC(=O)O)c(=O)n31)c1ccccc1CC2 (configuration not stated)	9.5
O=C(O)c1cccc(-c2ccc(/C=c3\sc4n(c3=O)C(c3cccc5ccccc35)C3=C(N=4)c4ccccc4CC3)o2)c1 (configuration not stated)	204
O=C(O)COc1cccc(/C=c2\sc3n(c2=O)C(c2ccccc2)C2=C(N=3)c3ccccc3CC2)c1 (configuration not stated)	7.8
O=C(O)c1cccc(-c2ccc(/C=c3\sc4n(c3=O)C(c3ccccc3)C3=C(N=4)c4ccccc4CC3)o2)c1 (configuration not stated)	71.7
COc1ccccc1C1C2=C(N=c3s/c(=C\c4ccc(C(=O)O)cc4)c(=O)n31)c1ccccc1CC2 (configuration not stated)	9.7
COc1ccccc1C1C2=C(N=c3s/c(=C\c4ccc(-c5cccc(C(=O)O)c5)o4)c(=O)n31)c1ccccc1CC2 (configuration not stated)	140

system: A2780; assay: cells; settings: Homo sapiens, A2780, 48 h
Description: Cytotoxicity against human A2780 cells after 48 hrs by MTT assay

EC50 [µM]	Structure (SMILES)
9.98	COc1ccccc1C1C=C(c2ccccc2)N=c2s/c(=C\c3cccc(OCC(=O)O)c3)c(=O)n21 (configuration not stated)
5.36	O=C(O)c1cccc(-c2ccc(/C=c3\sc4n(c3=O)C(c3cccc(F)c3)C3=C(N=4)/C(=C/c4cccc(F)c4)CCC3)o2)c1 (configuration not stated)
7.81	COc1ccccc1C1C2=C(N=c3s/c(=C\c4ccccc4OCC(=O)O)c(=O)n31)c1ccccc1CC2 (configuration not stated)
6.34	O=C(O)c1cccc(-c2ccc(/C=c3\sc4n(c3=O)C(c3cccc5ccccc35)C3=C(N=4)c4ccccc4CC3)o2)c1 (configuration not stated)
5.49	O=C(O)COc1cccc(/C=c2\sc3n(c2=O)C(c2ccccc2)C2=C(N=3)c3ccccc3CC2)c1 (configuration not stated)
7.46	O=C(O)c1cccc(-c2ccc(/C=c3\sc4n(c3=O)C(c3ccccc3)C3=C(N=4)c4ccccc4CC3)o2)c1 (configuration not stated)
7.94	COc1ccccc1C1C2=C(N=c3s/c(=C\c4ccc(C(=O)O)cc4)c(=O)n31)c1ccccc1CC2 (configuration not stated)
4.94	COc1ccccc1C1C2=C(N=c3s/c(=C\c4ccc(-c5cccc(C(=O)O)c5)o4)c(=O)n31)c1ccccc1CC2 (configuration not stated)

biological target: Bcl-2-like protein 1 (Homo sapiens, UniProt Q07817); assay: Inhibition of human Bcl-XL; settings: not given
Sequence (Q07817 whole entry): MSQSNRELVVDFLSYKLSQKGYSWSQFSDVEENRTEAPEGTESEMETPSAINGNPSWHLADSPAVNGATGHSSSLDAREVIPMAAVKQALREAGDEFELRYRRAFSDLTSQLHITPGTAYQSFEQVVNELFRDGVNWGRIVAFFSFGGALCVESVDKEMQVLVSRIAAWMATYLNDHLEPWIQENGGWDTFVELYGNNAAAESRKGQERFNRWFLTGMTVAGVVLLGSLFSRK

IC50 [µM]	Structure (SMILES)
6.2	CC(C)C(C(=O)O)C1C(=O)/C(=C/c2ccc(Br)cc2)SC1=S (configuration not stated)
> 100	COc1ccc2c(c1)CCC1=C2N=c2s/c(=C\c3cccc(OCC(=O)O)c3)c(=O)n2C1c1ccccc1OC (configuration not stated)
72	COc1ccccc1C1C=C(c2ccccc2)N=c2s/c(=C\c3cccc(OCC(=O)O)c3)c(=O)n21 (configuration not stated)
> 100	O=C(O)c1cccc(-c2ccc(/C=c3\sc4n(c3=O)C(c3cccc(F)c3)C3=C(N=4)/C(=C/c4cccc(F)c4)CCC3)o2)c1 (configuration not stated)
12.1	COc1ccccc1C1C2=C(N=c3s/c(=C\c4ccccc4OCC(=O)O)c(=O)n31)c1ccccc1CC2 (configuration not stated)
13.4	O=C(O)c1cccc(-c2ccc(/C=c3\sc4n(c3=O)C(c3cccc5ccccc35)C3=C(N=4)c4ccccc4CC3)o2)c1 (configuration not stated)
> 100	COc1ccccc1C1C2=C(N=c3s/c(=C\c4cccc(OCC(=O)O)c4)c(=O)n31)c1cccc(OCc3ccccc3)c1CC2 (configuration not stated)
> 100	COc1ccccc1C1C2=C(N=c3s/c(=C\c4cccc(OCC(=O)O)c4)c(=O)n31)c1cccc(OC(=O)c3ccccc3-c3ccccc3)c1CC2 (configuration not stated)
10.3	O=C(O)COc1cccc(/C=c2\sc3n(c2=O)C(c2ccccc2)C2=C(N=3)c3ccccc3CC2)c1 (configuration not stated)
12.6	O=C(O)c1cccc(-c2ccc(/C=c3\sc4n(c3=O)C(c3ccccc3)C3=C(N=4)c4ccccc4CC3)o2)c1 (configuration not stated)
12.6	COc1ccccc1C1C2=C(N=c3s/c(=C\c4ccc(C(=O)O)cc4)c(=O)n31)c1ccccc1CC2 (configuration not stated)
> 100	COc1ccc2c(c1)CCC1=C2N=c2s/c(=C\c3ccc(-c4cccc(C(=O)O)c4)o3)c(=O)n2C1c1cccc(F)c1 (configuration not stated)
5.3	COc1ccccc1C1C2=C(N=c3s/c(=C\c4ccc(-c5cccc(C(=O)O)c5)o4)c(=O)n31)c1ccccc1CC2 (configuration not stated)

system: OVCAR-3; assay: Cytotoxicity against human OVCAR-3 cells after 48 hrs by MTT assay; settings: OVCAR-3, 48 h

Structure (SMILES)	EC50 [µM]
COc1ccccc1C1C=C(c2ccccc2)N=c2s/c(=C\c3cccc(OCC(=O)O)c3)c(=O)n21 (configuration not stated)	22.2
O=C(O)c1cccc(-c2ccc(/C=c3\sc4n(c3=O)C(c3cccc(F)c3)C3=C(N=4)/C(=C/c4cccc(F)c4)CCC3)o2)c1 (configuration not stated)	11.7
COc1ccccc1C1C2=C(N=c3s/c(=C\c4ccccc4OCC(=O)O)c(=O)n31)c1ccccc1CC2 (configuration not stated)	4.44
O=C(O)c1cccc(-c2ccc(/C=c3\sc4n(c3=O)C(c3cccc5ccccc35)C3=C(N=4)c4ccccc4CC3)o2)c1 (configuration not stated)	18.7
O=C(O)COc1cccc(/C=c2\sc3n(c2=O)C(c2ccccc2)C2=C(N=3)c3ccccc3CC2)c1 (configuration not stated)	2.73
O=C(O)c1cccc(-c2ccc(/C=c3\sc4n(c3=O)C(c3ccccc3)C3=C(N=4)c4ccccc4CC3)o2)c1 (configuration not stated)	18.9
COc1ccccc1C1C2=C(N=c3s/c(=C\c4ccc(C(=O)O)cc4)c(=O)n31)c1ccccc1CC2 (configuration not stated)	3.35
COc1ccccc1C1C2=C(N=c3s/c(=C\c4ccc(-c5cccc(C(=O)O)c5)o4)c(=O)n31)c1ccccc1CC2 (configuration not stated)	9.06
